From PubChem BioAssay (NCI)
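1) Cells in 96-well plates. 2) Compound, 48 h, 5 concentrations. 3) Linear interpolation between surrounding doses. 4) Unreached endpoint = highest concentration. TGI: concentration producing complete growth inhibition.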

Key:
Test in all cases: DTP human tumour cell line panel, 48 h
HT29 colon = test system: HT29 colon
OVCAR-3 ovarian = test system: OVCAR-3 ovarian
MDA-MB-435 = test system: MDA-MB-435
SF-268 CNS = test system: SF-268 CNS
786-0 renal = test system: 786-0 renal
NCI-H226 lung = test system: NCI-H226 lung
NCI-H522 lung = test system: NCI-H522 lung
HCT-116 colon = test system: HCT-116 colon
OVCAR-5 ovarian = test system: OVCAR-5 ovarian
SW-620 colon = test system: SW-620 colon
IGROV1 ovarian = test system: IGROV1 ovarian
SF-539 CNS = test system: SF-539 CNS
HOP-62 NSCLC = test system: HOP-62 NSCLC
DU-145 prostate = test system: DU-145 prostate
NCI-H23 lung = test system: NCI-H23 lung
SR leukemia = test system: SR leukemia
SNB-19 CNS = test system: SNB-19 CNS
BT-549 breast = test system: BT-549 breast
SF-295 CNS = test system: SF-295 CNS
SK-MEL-5 melanoma = test system: SK-MEL-5 melanoma
ACHN renal = test system: ACHN renal
MDA-MB-231 breast = test system: MDA-MB-231 breast
UACC-257 melanoma = test system: UACC-257 melanoma
MDA-N = test system: MDA-N
A549 NSCLC = test system: A549 NSCLC
MOLT-4 leukemia = test system: MOLT-4 leukemia
NCI/ADR-RES ovarian = test system: NCI/ADR-RES ovarian
UO-31 renal = test system: UO-31 renal
T-47D breast = test system: T-47D breast
NCI-H460 lung = test system: NCI-H460 lung
SK-OV-3 ovarian = test system: SK-OV-3 ovarian
SK-MEL-2 melanoma = test system: SK-MEL-2 melanoma
OVCAR-4 ovarian = test system: OVCAR-4 ovarian
HCT-15 colon = test system: HCT-15 colon
EKVX NSCLC = test system: EKVX NSCLC
OVCAR-8 ovarian = test system: OVCAR-8 ovarian
KM12 colon = test system: KM12 colon
A498 renal = test system: A498 renal
UACC-62 melanoma = test system: UACC-62 melanoma
HS 578T breast = test system: HS 578T breast
M14 melanoma = test system: M14 melanoma
LOX IMVI melanoma = test system: LOX IMVI melanoma
PC-3 prostate = test system: PC-3 prostate
SK-MEL-28 melanoma = test system: SK-MEL-28 melanoma
RPMI-8226 leukemia = test system: RPMI-8226 leukemia
COLO 205 colon = test system: COLO 205 colon
HCC-2998 colon = test system: HCC-2998 colon
K-562 leukemia = test system: K-562 leukemia
SNB-75 CNS = test system: SNB-75 CNS
TK-10 renal = test system: TK-10 renal
MCF7 breast = test system: MCF7 breast
RXF 393 renal = test system: RXF 393 renal
HL-60(TB) leukemia = test system: HL-60(TB) leukemia
CCRF-CEM leukemia = test system: CCRF-CEM leukemia
CAKI-1 renal = test system: CAKI-1 renal
MALME-3M melanoma = test system: MALME-3M melanoma
HOP-92 NSCLC = test system: HOP-92 NSCLC
SN12C renal = test system: SN12C renal
U251 CNS = test system: U251 CNS

## OC(COc1cccc2ccccc12)CN1CCOCC1 (centres undefined)
HT29 colon
  TGI: > 100 µM
OVCAR-3 ovarian
  TGI: > 100 µM
MDA-MB-435
  TGI: > 100 µM
SF-268 CNS
  TGI: > 100 µM
786-0 renal
  TGI: > 100 µM
NCI-H226 lung
  TGI: > 100 µM
NCI-H522 lung
  TGI: > 100 µM
HCT-116 colon
  TGI: > 100 µM
OVCAR-5 ovarian
  TGI: > 100 µM
SW-620 colon
  TGI: > 100 µM
IGROV1 ovarian
  TGI: > 100 µM
SF-539 CNS
  TGI: > 100 µM
HOP-62 NSCLC
  TGI: > 100 µM
DU-145 prostate
  TGI: > 100 µM
NCI-H23 lung
  TGI: > 100 µM
SR leukemia
  TGI: > 100 µM
SNB-19 CNS
  TGI: > 100 µM
BT-549 breast
  TGI: > 100 µM
SF-295 CNS
  TGI: > 100 µM
SK-MEL-5 melanoma
  TGI: > 100 µM
ACHN renal
  TGI: > 100 µM
MDA-MB-231 breast
  TGI: > 100 µM
UACC-257 melanoma
  TGI: > 100 µM
MDA-N
  TGI: > 100 µM
A549 NSCLC
  TGI: > 100 µM
MOLT-4 leukemia
  TGI: > 100 µM
NCI/ADR-RES ovarian
  TGI: > 100 µM
UO-31 renal
  TGI: > 100 µM
T-47D breast
  TGI: > 100 µM
NCI-H460 lung
  TGI: > 100 µM
SK-OV-3 ovarian
  TGI: > 100 µM
SK-MEL-2 melanoma
  TGI: > 100 µM
OVCAR-4 ovarian
  TGI: > 100 µM
HCT-15 colon
  TGI: > 100 µM
EKVX NSCLC
  TGI: > 100 µM
OVCAR-8 ovarian
  TGI: > 100 µM
KM12 colon
  TGI: > 100 µM
A498 renal
  TGI: > 100 µM
UACC-62 melanoma
  TGI: > 100 µM
HS 578T breast
  TGI: > 100 µM
M14 melanoma
  TGI: > 100 µM
LOX IMVI melanoma
  TGI: > 100 µM
PC-3 prostate
  TGI: > 100 µM
SK-MEL-28 melanoma
  TGI: > 100 µM
RPMI-8226 leukemia
  TGI: > 100 µM
COLO 205 colon
  TGI: > 100 µM
HCC-2998 colon
  TGI: > 100 µM
K-562 leukemia
  TGI: > 100 µM
SNB-75 CNS
  TGI: > 100 µM
TK-10 renal
  TGI: > 100 µM
MCF7 breast
  TGI: > 100 µM
RXF 393 renal
  TGI: > 100 µM
HL-60(TB) leukemia
  TGI: > 100 µM
CCRF-CEM leukemia
  TGI: > 100 µM
CAKI-1 renal
  TGI: > 100 µM
MALME-3M melanoma
  TGI: > 100 µM
HOP-92 NSCLC
  TGI: 98.9 µM
SN12C renal
  TGI: > 100 µM
U251 CNS
  TGI: > 100 µM
